Results from ChEMBL document CHEMBL4507266, “Data for DCP probe BAY-784” (2021).

What was measured:
[1] = biological target: Substance-P receptor (Homo sapiens) (UniProt P25103); test: Inhibition of Tachykinin NK1 at 10 µM in the Eurofins-Panlabs radioligand binding assay (Eurofins_assay_255520); set-up: ligand concentration 0.8 nM; conditions: Compound concentration 10.0 uM
[2] = biological target: Glutamate receptor 2 (Homo sapiens) (UniProt P42262); conditions: Rattus norvegicus; Compound concentration 10.0 uM
[3] = biological target: Protein phosphatase 3 catalytic subunit alpha (Homo sapiens) (UniProt Q08209); test: Inhibition of Protein Serine/threonine Phosphatase, PPP3CA (Calcineurin, PP2B) […] in the Eurofins-Panlabs enzyme assay (Eurofins_assay_188020); set-up: substrate with concentration; conditions: Compound concentration 10.0 uM
[4] = biological target: D(3) dopamine receptor (Homo sapiens) (UniProt P35462); conditions: Compound concentration 10.0 uM
[5] = biological target: Carbonic anhydrase 2 (Homo sapiens) (UniProt P00918); test: Inhibition of Carbonic Anhydrase II at compound concentration of 10.0 uM in the Eurofins-Panlabs enzyme assay (Eurofins_assay_112020); set-up: substrate with concentration; conditions: Compound concentration 10.0 uM
[6] = biological target: Cysteinyl leukotriene receptor 1 (Homo sapiens) (UniProt Q9Y271); test: Inhibition of Leukotriene, Cysteinyl CysLT1 at 10 µM in the Eurofins-Panlabs radioligand binding assay (Eurofins_assay_250460); set-up: ligand concentration 0.3 nM, non-specific ligand with concentration 0.3 µM Leukotriene D4, incubation time 30 min, incubation temperature 25 °C; conditions: Compound concentration 10.0 uM
Sus scrofa = organism: Sus scrofa; test: Inhibition of ATPase, Na+/K+, Heart at compound concentration of 10.0 uM in the Eurofins-Panlabs enzyme assay (Eurofins_assay_107710); set-up: substrate with concentration; conditions: Compound concentration 10.0 uM
[7] = Inhibition of Atrial Natriuretic Factor (ANF) at 10 µM in the Eurofins-Panlabs radioligand binding assay (Eurofins_assay_211000); conditions: Cavia porcellus; Compound concentration 10 uM; Assay protocol publication PMID: 2408776; Detection method Radioligand Binding; Incubation temperature 4 °C; Incubation time 60 min; Ligand Bmax 0.013 pM/ mg protein; Ligand Kd 0.14 nM; Ligand [125I] ANF (rat); Ligand concentration 0.016 nM; Ligand specific binding 78 %; Non-specific ligand with concentration 0.1 µM ANF (rat); Reference compound ANF (rat); Source of …
[8] = biological target: 3-hydroxy-3-methylglutaryl-coenzyme A reductase (Homo sapiens) (UniProt P04035); test: Inhibition of HMG-CoA Reductase at compound concentration of 10.0 uM in the Eurofins-Panlabs enzyme assay (Eurofins_assay_124010); set-up: substrate with concentration; conditions: Compound concentration 10.0 uM
[9] = biological target: T1, Muscarinic acetylcholine receptor M2 (Homo sapiens) (UniProt P08172); conditions: Compound concentration 10.0 uM
T1 sequence (whole entry): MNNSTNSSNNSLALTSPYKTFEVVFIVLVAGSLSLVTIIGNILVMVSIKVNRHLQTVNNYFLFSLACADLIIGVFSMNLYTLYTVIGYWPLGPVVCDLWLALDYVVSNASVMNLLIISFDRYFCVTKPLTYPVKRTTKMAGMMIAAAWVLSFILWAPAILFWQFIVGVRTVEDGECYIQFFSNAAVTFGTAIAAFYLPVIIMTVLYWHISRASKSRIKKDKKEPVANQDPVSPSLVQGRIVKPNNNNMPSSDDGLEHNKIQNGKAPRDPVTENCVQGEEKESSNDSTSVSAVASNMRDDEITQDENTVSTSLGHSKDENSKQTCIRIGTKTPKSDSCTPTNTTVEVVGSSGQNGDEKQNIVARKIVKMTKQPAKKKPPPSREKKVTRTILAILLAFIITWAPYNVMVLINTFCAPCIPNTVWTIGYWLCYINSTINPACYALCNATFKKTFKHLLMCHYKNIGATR

[10] = biological target: 5-hydroxytryptamine receptor 1A (Homo sapiens) (UniProt P08908); conditions: Compound concentration 10.0 uM
[11] = biological target: Sodium-dependent serotonin transporter (Homo sapiens) (UniProt P31645); conditions: Compound concentration 10.0 uM
[12] = biological target: Beta-1 adrenergic receptor (Homo sapiens) (UniProt P08588); conditions: Compound concentration 10.0 uM
[13] = biological target: Receptor tyrosine-protein kinase erbB-2 (Homo sapiens) (UniProt P04626); test: Inhibition of Protein Tyrosine Kinase, ERBB2 (HER2) at 10 µM in the Eurofins-Panlabs enzyme assay (Eurofins_assay_174020); set-up: substrate with concentration; conditions: Compound concentration 10.0 uM
[14] = biological target: Matrix metalloproteinase-9 (Homo sapiens) (UniProt P14780); test: Inhibition of Peptidase, Matrix Metalloproteinase-9 (MMP-9) at 10 µM in the Eurofins-Panlabs enzyme assay (Eurofins_assay_114910); set-up: substrate with concentration; conditions: Compound concentration 10.0 uM
CYP1A2 = CYP1A2 (Homo sapiens, UniProt P05177); test: CYP450, 1A2 Eurofins-Panlabs enzyme assay; conditions: compound concentration 10 uM
[15] = biological target: T2, Alpha-1A adrenergic receptor (Homo sapiens) (UniProt P35348); conditions: Rattus norvegicus; Compound concentration 10.0 uM
T2 sequence (whole entry): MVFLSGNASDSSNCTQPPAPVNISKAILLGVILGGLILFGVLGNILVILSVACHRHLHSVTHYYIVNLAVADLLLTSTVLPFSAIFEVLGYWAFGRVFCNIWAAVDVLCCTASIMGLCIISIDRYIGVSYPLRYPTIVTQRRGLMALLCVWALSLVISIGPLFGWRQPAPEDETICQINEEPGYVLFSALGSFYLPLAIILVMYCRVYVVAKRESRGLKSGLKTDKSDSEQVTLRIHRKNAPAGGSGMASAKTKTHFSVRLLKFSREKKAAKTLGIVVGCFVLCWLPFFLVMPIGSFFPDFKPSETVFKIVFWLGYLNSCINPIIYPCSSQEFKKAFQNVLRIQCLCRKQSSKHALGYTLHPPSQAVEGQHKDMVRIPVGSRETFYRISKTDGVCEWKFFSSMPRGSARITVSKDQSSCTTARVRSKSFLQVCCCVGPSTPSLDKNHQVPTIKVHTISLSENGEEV

[16] = biological target: 5-hydroxytryptamine receptor 2B (Homo sapiens) (UniProt P41595); conditions: Compound concentration 10.0 uM
[17] = biological target: GABA-A receptor; anion channel (Rattus norvegicus) (UniProt O09028+P15431+P18506+P18508+P19969+P20236+P23574+P23576+P28471+P28473+P30191+P62813+P63079+P63138+Q91ZM7+Q9ES14); conditions: Compound concentration 10.0 uM
D(1A) dopamine receptor = D(1A) dopamine receptor (Homo sapiens, UniProt P21728); test: GPCRScan assay: inhibition of D1; set-up: radioligand conc. used [nm] 0.6 – 1.3, parental cells HEKT
[18] = biological target: Sodium-dependent dopamine transporter (Homo sapiens) (UniProt Q01959); conditions: Compound concentration 10.0 uM

Chain of 3-hydroxy-3-methylglutaryl-coenzyme A reductase (Homo sapiens) (P04035 whole entry): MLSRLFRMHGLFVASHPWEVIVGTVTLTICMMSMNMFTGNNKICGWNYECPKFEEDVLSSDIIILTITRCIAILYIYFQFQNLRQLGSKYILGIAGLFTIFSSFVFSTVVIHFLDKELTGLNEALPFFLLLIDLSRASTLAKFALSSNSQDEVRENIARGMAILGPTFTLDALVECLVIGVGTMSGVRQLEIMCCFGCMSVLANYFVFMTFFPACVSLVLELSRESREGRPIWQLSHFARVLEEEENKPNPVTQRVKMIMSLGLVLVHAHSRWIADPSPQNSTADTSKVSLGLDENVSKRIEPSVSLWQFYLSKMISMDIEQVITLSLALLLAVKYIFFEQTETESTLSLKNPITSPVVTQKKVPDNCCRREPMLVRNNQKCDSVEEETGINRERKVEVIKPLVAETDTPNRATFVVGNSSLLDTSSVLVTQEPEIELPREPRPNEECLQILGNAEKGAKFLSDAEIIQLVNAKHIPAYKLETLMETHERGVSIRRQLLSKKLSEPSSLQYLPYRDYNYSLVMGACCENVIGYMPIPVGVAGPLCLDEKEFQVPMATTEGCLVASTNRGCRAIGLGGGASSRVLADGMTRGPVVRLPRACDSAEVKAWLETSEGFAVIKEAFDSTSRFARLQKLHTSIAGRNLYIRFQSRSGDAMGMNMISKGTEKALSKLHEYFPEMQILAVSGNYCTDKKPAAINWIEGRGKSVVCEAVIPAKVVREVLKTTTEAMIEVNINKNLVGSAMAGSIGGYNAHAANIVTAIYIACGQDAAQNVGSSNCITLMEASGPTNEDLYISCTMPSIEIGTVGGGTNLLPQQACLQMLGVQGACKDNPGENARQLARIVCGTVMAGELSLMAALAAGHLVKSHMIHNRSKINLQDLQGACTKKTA
Chain of Sodium-dependent serotonin transporter (Homo sapiens) (P31645 whole entry, looked up): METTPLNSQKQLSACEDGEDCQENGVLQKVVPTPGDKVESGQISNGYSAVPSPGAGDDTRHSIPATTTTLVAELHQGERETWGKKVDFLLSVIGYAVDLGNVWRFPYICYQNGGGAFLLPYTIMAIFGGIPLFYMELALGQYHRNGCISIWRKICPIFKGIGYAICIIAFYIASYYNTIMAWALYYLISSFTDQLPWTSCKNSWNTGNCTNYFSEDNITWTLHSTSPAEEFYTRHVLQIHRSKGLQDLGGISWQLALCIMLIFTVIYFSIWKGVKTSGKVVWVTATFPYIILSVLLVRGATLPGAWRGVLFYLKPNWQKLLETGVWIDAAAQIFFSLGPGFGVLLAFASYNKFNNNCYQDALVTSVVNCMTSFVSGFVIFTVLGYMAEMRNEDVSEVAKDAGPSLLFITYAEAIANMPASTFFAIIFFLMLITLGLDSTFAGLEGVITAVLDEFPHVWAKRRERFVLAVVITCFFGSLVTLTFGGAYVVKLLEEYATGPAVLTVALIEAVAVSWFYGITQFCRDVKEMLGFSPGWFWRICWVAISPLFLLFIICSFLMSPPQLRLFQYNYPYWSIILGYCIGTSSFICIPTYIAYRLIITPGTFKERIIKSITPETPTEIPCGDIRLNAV
Chain of Substance-P receptor (Homo sapiens) (P25103 whole entry): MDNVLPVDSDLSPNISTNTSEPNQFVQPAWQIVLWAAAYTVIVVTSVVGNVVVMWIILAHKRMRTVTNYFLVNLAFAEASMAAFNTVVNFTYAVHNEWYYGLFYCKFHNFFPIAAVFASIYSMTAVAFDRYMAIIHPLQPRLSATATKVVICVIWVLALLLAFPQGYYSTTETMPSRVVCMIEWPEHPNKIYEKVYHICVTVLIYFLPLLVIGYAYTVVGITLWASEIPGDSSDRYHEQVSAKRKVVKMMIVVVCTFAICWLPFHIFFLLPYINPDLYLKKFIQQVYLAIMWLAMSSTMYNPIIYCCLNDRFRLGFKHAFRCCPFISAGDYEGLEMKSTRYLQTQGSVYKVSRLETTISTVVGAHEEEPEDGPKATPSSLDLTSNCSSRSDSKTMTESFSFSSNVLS
Chain of Receptor tyrosine-protein kinase erbB-2 (Homo sapiens) (P04626 whole entry): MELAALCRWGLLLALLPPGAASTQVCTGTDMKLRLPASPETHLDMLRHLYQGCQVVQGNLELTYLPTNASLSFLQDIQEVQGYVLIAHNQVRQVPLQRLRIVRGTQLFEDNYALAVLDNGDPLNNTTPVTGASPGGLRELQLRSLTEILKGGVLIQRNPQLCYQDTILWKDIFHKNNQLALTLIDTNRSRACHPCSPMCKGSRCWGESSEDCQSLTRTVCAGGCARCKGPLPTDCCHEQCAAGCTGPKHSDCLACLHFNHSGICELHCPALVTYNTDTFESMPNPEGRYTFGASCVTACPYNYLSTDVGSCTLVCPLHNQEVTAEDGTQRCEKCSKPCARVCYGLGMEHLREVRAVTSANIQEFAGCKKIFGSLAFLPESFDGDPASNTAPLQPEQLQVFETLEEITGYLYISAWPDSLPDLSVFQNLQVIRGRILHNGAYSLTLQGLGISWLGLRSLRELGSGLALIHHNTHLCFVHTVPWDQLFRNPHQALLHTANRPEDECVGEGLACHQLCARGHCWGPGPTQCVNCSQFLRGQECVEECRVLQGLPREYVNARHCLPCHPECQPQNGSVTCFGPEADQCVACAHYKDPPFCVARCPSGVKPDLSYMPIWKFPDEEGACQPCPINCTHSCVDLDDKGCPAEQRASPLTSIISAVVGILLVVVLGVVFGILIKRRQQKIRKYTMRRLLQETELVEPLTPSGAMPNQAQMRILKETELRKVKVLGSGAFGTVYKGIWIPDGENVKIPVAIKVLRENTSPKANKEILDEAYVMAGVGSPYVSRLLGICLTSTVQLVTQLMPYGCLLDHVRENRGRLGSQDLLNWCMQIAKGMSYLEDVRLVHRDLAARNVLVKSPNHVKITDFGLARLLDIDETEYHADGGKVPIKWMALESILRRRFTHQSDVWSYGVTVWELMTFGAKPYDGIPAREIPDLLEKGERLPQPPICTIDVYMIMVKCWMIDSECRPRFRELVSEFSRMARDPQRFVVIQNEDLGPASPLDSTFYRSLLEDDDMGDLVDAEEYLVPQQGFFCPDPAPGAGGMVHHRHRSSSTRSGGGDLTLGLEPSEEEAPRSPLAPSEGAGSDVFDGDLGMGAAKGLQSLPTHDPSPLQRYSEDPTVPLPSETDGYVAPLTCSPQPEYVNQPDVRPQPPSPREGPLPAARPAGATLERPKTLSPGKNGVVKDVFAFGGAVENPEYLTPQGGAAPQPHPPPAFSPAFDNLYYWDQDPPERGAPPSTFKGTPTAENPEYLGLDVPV
Chain of Cysteinyl leukotriene receptor 1 (Homo sapiens) (Q9Y271 whole entry): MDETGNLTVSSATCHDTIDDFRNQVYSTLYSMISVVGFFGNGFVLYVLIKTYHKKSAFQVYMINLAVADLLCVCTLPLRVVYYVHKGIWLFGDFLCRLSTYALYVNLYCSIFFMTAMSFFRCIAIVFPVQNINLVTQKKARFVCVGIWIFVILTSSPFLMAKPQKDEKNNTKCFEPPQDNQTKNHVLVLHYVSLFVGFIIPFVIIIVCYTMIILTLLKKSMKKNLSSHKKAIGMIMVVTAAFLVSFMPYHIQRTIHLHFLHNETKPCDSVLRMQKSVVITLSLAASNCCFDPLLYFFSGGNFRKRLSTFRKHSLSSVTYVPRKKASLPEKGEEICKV
Chain of D(1A) dopamine receptor (P21728 whole entry): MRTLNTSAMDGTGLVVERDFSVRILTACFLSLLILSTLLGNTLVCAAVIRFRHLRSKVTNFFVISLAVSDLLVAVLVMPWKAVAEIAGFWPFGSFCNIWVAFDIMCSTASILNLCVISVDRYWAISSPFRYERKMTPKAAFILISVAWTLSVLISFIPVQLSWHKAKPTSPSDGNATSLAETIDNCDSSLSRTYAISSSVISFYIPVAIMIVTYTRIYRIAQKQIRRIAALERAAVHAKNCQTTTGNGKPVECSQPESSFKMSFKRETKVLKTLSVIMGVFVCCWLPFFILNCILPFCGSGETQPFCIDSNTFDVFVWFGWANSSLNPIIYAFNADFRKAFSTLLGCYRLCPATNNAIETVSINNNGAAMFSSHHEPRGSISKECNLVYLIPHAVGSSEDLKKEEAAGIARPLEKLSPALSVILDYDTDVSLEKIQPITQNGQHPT
Chain of Glutamate receptor 2 (Homo sapiens) (P42262 whole entry): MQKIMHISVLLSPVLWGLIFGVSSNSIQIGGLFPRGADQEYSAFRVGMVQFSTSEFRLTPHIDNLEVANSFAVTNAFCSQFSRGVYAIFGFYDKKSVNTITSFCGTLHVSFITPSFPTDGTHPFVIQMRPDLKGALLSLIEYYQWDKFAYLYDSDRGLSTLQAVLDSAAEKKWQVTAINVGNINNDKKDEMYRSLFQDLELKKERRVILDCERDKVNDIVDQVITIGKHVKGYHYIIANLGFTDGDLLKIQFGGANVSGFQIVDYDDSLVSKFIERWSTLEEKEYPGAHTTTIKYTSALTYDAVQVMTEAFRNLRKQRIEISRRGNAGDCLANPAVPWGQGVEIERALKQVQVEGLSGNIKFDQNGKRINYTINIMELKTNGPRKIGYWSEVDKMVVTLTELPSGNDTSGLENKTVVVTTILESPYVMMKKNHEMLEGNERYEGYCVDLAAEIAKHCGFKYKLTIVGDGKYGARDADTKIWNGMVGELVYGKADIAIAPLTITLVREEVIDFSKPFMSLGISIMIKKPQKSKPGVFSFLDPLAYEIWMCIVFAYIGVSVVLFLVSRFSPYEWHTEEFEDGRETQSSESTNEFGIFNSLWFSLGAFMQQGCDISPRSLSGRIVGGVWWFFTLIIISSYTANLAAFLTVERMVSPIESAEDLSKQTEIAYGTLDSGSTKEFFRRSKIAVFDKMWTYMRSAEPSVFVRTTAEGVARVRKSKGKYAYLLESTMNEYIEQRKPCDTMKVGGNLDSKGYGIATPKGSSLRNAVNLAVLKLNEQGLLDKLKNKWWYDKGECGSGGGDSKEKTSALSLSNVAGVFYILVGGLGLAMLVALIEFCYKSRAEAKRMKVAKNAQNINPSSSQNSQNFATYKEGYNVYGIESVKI

`O=C(NCc1ncc(C(F)(F)F)cc1Cl)c1ccc2c(c1)C1(CCS(=O)(=O)CC1)[C@H](C1CC1)N2S(=O)(=O)c1ccc(F)cc1` [BAY-784] showed an inhibition [1] of 26%, an inhibition [2] of 2% and an inhibition [3] of 16%. The inhibition [4] was 17%, the inhibition [5] was -5% and the inhibition [6] was 4%. The inhibition (Sus scrofa) was 0%, the inhibition at 10 µM [7] was 2% (not active) and the inhibition [8] was 12%. For the same compound, the inhibition [9] was -3%, the inhibition [10] was 0% and the inhibition [11] was 10%. It also gave an inhibition [12] of 7%, an inhibition [13] of 6% and an inhibition [14] of 3%. For the same compound, the inhibition at 10 µM (CYP1A2) was -2% (not active), the inhibition [15] was 7% and the inhibition [16] was 4%. The inhibition [17] was 34%.

In the case of `O=C(NCc1ncc(C(F)(F)F)cc1Cl)c1ccc2c(c1)C1(CCS(=O)(=O)CC1)[C@@H](C1CC1)N2S(=O)(=O)c1ccc(F)cc1` [BAY-786], the Ki (D(1A) dopamine receptor) is reported as 10 µM and the inhibition [18] is reported as -4.64%.
